Results on nine compounds are retold here after patent US20210254056A1, “IDENTIFICATION AND TARGETED MODULATION OF GENE SIGNALING NETWORKS” (CAMP4 THERAPEUTICS CORPORATION, priority 2017, published 2021).

The test system of one series is TF1 cells. Briefly: Biological activity of maximal compound dosages in TF1 cells. As to conditions: 10 μM dose. The class given is cell-based. As to the method: (§1) The stock for each compound was at 10 mM and were diluted to 100 μM with RMPI+GCMSF (2% DMSO). Cells were collected and resuspended in 8 mL of RPMI+GMCSF at a concentration of 1×10^6 cells/mL. For the TF1 cells, at each well of a 6-well plate were added 1 mL of cells, 300 μL of 100 μM compound dilution, and 1.7 mL of RMPI+GCMSF+1.5% DMSO (1% final DMSO concentration in 3 mL total). One mL of the CI-CB-CD34+ cells, 300 μL of 100 μM compound dilution, and 700 μL of RMPI+GCMSF ([…]) were added to each well of a 6-well plate.
(§2) Compound dilutions were performed as described in Example 1. […] In a 6-well format, there were 1 million cells/well=1 million cells/ml=1000 cells/pl. […].

The subject of the next series is CI-CB-CD34+ cells. In words: Biological activity of maximal compound dosages in CI-CB-CD34+ cells. It is filed as cell-based, human. The conditions noted are these: 10 μM dose. The protocol: as §1, §2
Series [1] relates to primary human hepatocytes.
The test system of series [2] is primary human hepatocytes. In words: RNA-seq of primary human hepatocytes treated with 39 small molecules (pilot and validation). The conditions noted are these: for significant modulation of gene expression: RNA-seq, p-value≤0.05, primary human hepatocytes, the modulated genes are listed in the block; for Number (#) of genes having significantly changed expression: pilot RNA-seq study of Example 2, significance: FPKM≥0.5, log 2(fold change)≥1, q-value ≤0.05.

For the compound `Cc1ccc(C(=O)Cn2c3c(sc2=N)CCCC3)cc1` [Pifithrin alpha, Pifithrin-α], the “response of TF1 cells (biological activity, cell viability)” value in the series with TF1 cells is “did not significantly respond”. For the same compound, in the series with CI-CB-CD34+ cells, the “biological activity of CD34+ cells (cell viability)” value (“biological activity of CD34+ cells” below) was “little or no effect”.
On to `Cc1ccc(-c2cn3c4c(sc3n2)CCCC4)cc1` [Cyclic-pifithrin alpha, Cyclic Pifithrin-a], for which the “response of TF1 cells (biological activity, cell viability)” value in the series with TF1 cells was “did not significantly respond”.
As to `COc1ccc(C2=N[C@@H](c3ccc(Cl)cc3)[C@@H](c3ccc(Cl)cc3)N2C(=O)N2CCNC(=O)C2)c(OC(C)C)c1` [Nutlin 3a], the “response of TF1 cells (biological activity, cell viability)” value in the series with TF1 cells is given as “did not significantly respond”. Moreover, the “biological activity of CD34+ cells” value in the series with CI-CB-CD34+ cells is “reduced biological activity”.
As for `COc1ccc(C2=N[C@@H](c3ccc(Cl)cc3)[C@@H](c3ccc(Cl)cc3)N2C(=O)N2CCNC(=O)C2)c(OC(C)C)c1` (racemic) [Nutlin 3], the “response of TF1 cells (biological activity, cell viability)” value in the series with TF1 cells is on record as “did not significantly respond”. Further, the “biological activity of CD34+ cells” value with CI-CB-CD34+ cells is listed as “reduced biological activity”.
As for `CC(C)(S)[C@@H](N)C(=O)O` [MT-741, Penicillamine(D-)], in series [1], the “Log2 fold changes in gene expression: CYP2C19” value (“Log2 fold changes … CYP2C19” below) is 0.04 and the “Log2 fold changes in gene expression: CYP3A4” value (shortened to “Log2 fold changes … CYP3A4”) is recorded as −0.08. Further, the “Log2 fold changes in gene expression: ACADVL” value in series [2] (RNA-seq validation, duplicates, gene ACADVL) was −0.04. For the same compound, the “Log2 fold changes in gene expression: ACAT2” value in series [2] (RNA-seq validation, duplicates, gene ACAT2) is on record as −0.05. Moreover, the “Log2 fold changes in gene expression: ACSL1” value in series [2] (RNA-seq validation, duplicates, gene ACSL1) is 0. Also, the “Log2 fold changes in gene expression: ACSL5” value in series [2] (RNA-seq validation, duplicates, gene ACSL5) was −0.05. In addition, the “Log2 fold changes in gene expression: AGPAT2” value in series [2] (RNA-seq validation, duplicates, gene AGPAT2) is −0.11. Moreover, the “Log2 fold changes in gene expression: AGTR1” value in series [2] (RNA-seq validation, duplicates, gene AGTR1) is −0.04. The “Log2 fold changes in gene expression: AHSG” value in series [2] (RNA-seq validation, duplicates, gene AHSG) is given as 0.03. In series [2] (RNA-seq validation, duplicates, gene ALAS1), the “Log2 fold changes in gene expression: ALAS1” value is on record as −0.11. The “Log2 fold changes in gene expression: AMACR” value in series [2] (RNA-seq validation, duplicates, gene AMACR) was −0.24. For the same compound, the “Log2 fold changes in gene expression: ARG1” value in series [2] (RNA-seq validation, duplicates, gene ARG1) was found to be 0.01. Besides, the “Log2 fold changes in gene expression: CA2” value in series [2] (RNA-seq validation, duplicates, gene CA2) is on record as −0.18. Also, the “Log2 fold changes in gene expression: CA12” value in series [2] (RNA-seq validation, duplicates, gene CA12) is on record as −0.02. Moreover, the “Log2 fold changes in gene expression: CIDEC” value in series [2] (RNA-seq validation, duplicates, gene CIDEC) was −0.24. Further, the “Log2 fold changes in gene expression: COL1A1” value in series [2] (RNA-seq validation, duplicates, gene COL1A1) turned out to be 0.14. In addition, the “Log2 fold changes in gene expression: CPS1” value in series [2] (RNA-seq validation, duplicates, gene CPS1) was −0.12. For the same compound, in series [2] (RNA-seq validation, duplicates, gene CPT1A), the “Log2 fold changes in gene expression: CPT1A” value was 0.04. Further, the “Log2 fold changes in gene expression: CPT2” value in series [2] (RNA-seq validation, duplicates, gene CPT2) is listed as −0.22. Further, in series [2] (RNA-seq validation, duplicates, gene CYP21A2), the “Log2 fold changes in gene expression: CYP21A2” value is listed as 0.04. Besides, the “Log2 fold changes in gene expression: ECH1” value in series [2] (RNA-seq validation, duplicates, gene ECH1) is −0.14. Besides, in series [2] (RNA-seq validation, duplicates, gene ENO3), the “Log2 fold changes in gene expression: ENO3” value is −0.17. For the same compound, in series [2] (RNA-seq validation, duplicates, gene ETFDH), the “Log2 fold changes in gene expression: ETFDH” value is on record as −0.12. Also, in series [2] (RNA-seq validation, duplicates, gene FABP1), the “Log2 fold changes in gene expression: FABP1” value is listed as −0.22. In series [2] (RNA-seq validation, duplicates, gene G6PC), the “Log2 fold changes in gene expression: G6PC” value amounted to 0.14. Moreover, in series [2] (RNA-seq validation, duplicates, gene GHR), the “Log2 fold changes in gene expression: GHR” value was −0.13. In addition, the “Log2 fold changes in gene expression: GLA” value in series [2] (RNA-seq validation, duplicates, gene GLA) is on record as −0.06. The “Log2 fold changes in gene expression: HGD” value in series [2] (RNA-seq validation, duplicates, gene HGD) was −0.16. Also, the “Log2 fold changes in gene expression: HMGCR” value in series [2] (RNA-seq validation, duplicates, gene HMGCR) was found to be 0.05. In addition, the “Log2 fold changes in gene expression: HMGCS2” value in series [2] (RNA-seq validation, duplicates, gene HMGCS2) is given as −0.03. In addition, in series [2] (RNA-seq validation, duplicates, gene HMOX1), the “Log2 fold changes in gene expression: HMOX1” value was determined as 0.05. For the same compound, the “Log2 fold changes in gene expression: HOGA1” value in series [2] (RNA-seq validation, duplicates, gene HOGA1) is given as 0. In addition, in series [2] (RNA-seq validation, duplicates, gene HPGD), the “Log2 fold changes in gene expression: HPGD” value is recorded as −0.06. In addition, the “Log2 fold changes in gene expression: IFT27” value in series [2] (RNA-seq validation, duplicates, gene IFT27) was −0.01. Besides, the “Log2 fold changes in gene expression: LDHA” value in series [2] (RNA-seq validation, duplicates, gene LDHA) worked out at 0.08. For the same compound, the “Log2 fold changes in gene expression: LPIN2” value in series [2] (RNA-seq validation, duplicates, gene LPIN2) is 0.17. Besides, in series [2] (RNA-seq validation, duplicates, gene MOGAT2), the “Log2 fold changes in gene expression: MOGAT2” value was 0.13. Also, in series [2] (RNA-seq validation, duplicates, gene NCF2), the “Log2 fold changes in gene expression: NCF2” value is recorded as −0.19. Also, in series [2] (RNA-seq validation, duplicates, gene PCSK9), the “Log2 fold changes in gene expression: PCSK9” value came out at 0.17. In series [2] (RNA-seq validation, duplicates, gene POR), the “Log2 fold changes in gene expression: POR” value was −0.14. For the same compound, the “Log2 fold changes in gene expression: RMRP” value in series [2] (RNA-seq validation, duplicates, gene RMRP) is −1.45. Moreover, the “Log2 fold changes in gene expression: SLC2A2” value in series [2] (RNA-seq validation, duplicates, gene SLC2A2) is given as −0.22. The “Log2 fold changes in gene expression: SLC6A6” value in series [2] (RNA-seq validation, duplicates, gene SLC6A6) is −0.35. For the same compound, the “Log2 fold changes in gene expression: SLC25A20” value in series [2] (RNA-seq validation, duplicates, gene SLC25A20) is listed as −0.31. For the same compound, the “Log2 fold changes in gene expression: SLC37A4” value in series [2] (RNA-seq validation, duplicates, gene SLC37A4) stood at 0.09. In addition, the “Log2 fold changes in gene expression: SLC51B” value in series [2] (RNA-seq validation, duplicates, gene SLC51B) is given as −0.08. Moreover, the “Log2 fold changes in gene expression: SULT2A1” value in series [2] (RNA-seq validation, duplicates, gene SULT2A1) is −0.18. In addition, in series [2] (RNA-seq validation, duplicates, gene TAT), the “Log2 fold changes in gene expression: TAT” value is listed as 0.09. Further, the “Log2 fold changes in gene expression: TDO2” value in series [2] (RNA-seq validation, duplicates, gene TDO2) is listed as −0.14. The “Log2 fold changes in gene expression: TMEM135” value in series [2] (RNA-seq validation, duplicates, gene TMEM135) is −0.16. The “Log2 fold changes in gene expression: TNFSF11” value in series [2] (RNA-seq validation, duplicates, gene TNFSF11) stood at 0.04. Besides, in series [2] (RNA-seq validation, duplicates, gene VLDLR), the “Log2 fold changes in gene expression: VLDLR” value was 0.09. Also, in series [2], the “significant modulation of gene expression” value (“significant modulation” below) is “significantly (p-value≤0.05) modulate” and the “Number (#) of genes having significantly changed expression” value is listed as 9.
For `COc1ccc(Cc2nccc3cc(OC)c(OC)cc23)cc1OC` [MT-913, Papaverine], in series [1], the “Log2 fold changes … CYP2C19” value amounted to 0.09 and the “Log2 fold changes … CYP3A4” value stood at 0.06. Further, in series [2], the “significant modulation” value is recorded as “significantly (p-value≤0.05) modulate” and the “Number (#) of genes having significantly changed expression” value is recorded as 12.
The like results for `CCN1CCCC1CNC(=O)c1cc(S(N)(=O)=O)ccc1OC` (centres unmarked) [MT-277, Sulpiride] were, in that order, 0.04, 0, “significantly (p-value≤0.05) modulate” and 8.
As for `CC(C)N(CCC(C(N)=O)(c1ccccc1)c1ccccn1)C(C)C` (centres unmarked) [MT-189, Disopyramide], in series [1], the “Log2 fold changes … CYP2C19” value turned out to be 0.18 and the “Log2 fold changes … CYP3A4” value was found to be 0.03. Moreover, in series [2], the “significant modulation” value is on record as “significantly (p-value≤0.05) modulate” and the “Number (#) of genes having significantly changed expression” value is recorded as 7.
The like results for `CCc1nn(CCCN2CCN(c3cccc(Cl)c3)CC2)c(=O)n1CCOc1ccccc1` [MT-505, Nefazodone] were, in that order, −0.03, 0.4, “significantly (p-value≤0.05) modulate” and 18.
